# Data reported in US6391840B1, “Multiple component bleaching compositions” (Unilever Home & Personal Care USA, division of Conopco, Inc., priority 1999, dated 2002).
# How the values were obtained:
# [1] = Stability tests of imine quat in the presence of hydrogen peroxide at various pH (1H NMR integral ratio; permanganate titration); assay type: physicochemical
# Description: The stability of N-methyl-3,4 dihydroisoquinolinium tosylate in the presence of hydrogen peroxide was tested at various pH values. To this end samples were prepared containing 6.0% w/w hydrogen peroxide, 2.0% w/w of the imine quat and 0.01% w/w Dequest™ 2047 (ethylenediamine-tetra[methylene-phosphonic acid] sodium salt, a sequestrant marketed by Monsanto). This is equivalent to a partial composition which together with a second partial composition of the same volume would lead to a final composition with 3% hydrogen peroxide and 1% imine quat.
# The pH of the samples was adjusted using 1.0M hydrochloric acid or 2.0M sodium hydroxide as required. During the test the pH of the samples was re-adjusted as indicated using 2.0M sodium hydroxide.
# The hydrogen peroxide content was determined by titration against 0.02 M potassium permanganate. […] Complete reaction of 1 equivalent of hydrogen peroxide with 1 equivalent of imine quat would result in a decrease in hydrogen peroxide concentration of 0.2% w/w.
# Imine quat stability was monitored using ^1H NMR spectroscopy, by comparing the ratio of the integrals of the iminium proton which appears at 8.85 ppm relative to TMS, with those for the aromatic protons on the inert tosylate counter-ion, which are observed at 7.65 ppm. Loss of imine quat (e.g. through reaction with hydrogen peroxide) is observed as a decrease in the iminium:tosylate integral ratio, and % of imine quat remaining is calculated as integral ratio after storage÷initial integral ratio.
# [2] = system: black mould (Cladosporium cladosporoides), autoclaved mould paste; assay: Bleaching of autoclaved black mould paste on porous ceramic tiles, expert panel score 0-6
# Description: Hydrogen peroxide solutions with and without imine quat (N-methyl-3,4-dihydroisoquinolinium tosylate) and at various pH values were tested on their ability to bleach black mould in comparison with sodium hypochlorite, which is the standard product used to clean black mould stains. The hydrogen peroxide solutions were all freshly prepared just before testing so as to mimic compositions obtained by mixing appropriate partial compositions on dispensing. In order to obtain reproducible results an autoclaved mould paste was used for the testing.
# Cultures of hyphal Cladosporium cladosporoides were prepared on agar jelly. Warm water was used to dissolve the jelly and separate it from the mould hyphae, which were then autoclaved. […]
# Small circular pieces of single ply tissue paper were cut to a convenient size and placed on the surface of the ‘mould tile’ test pieces, such that the edges of the test pieces remain uncovered. A fixed quantity of the test solution was allowed to drop onto the surface of the tissue and allowed to soak into the tile. […]
# Test pieces were assessed for the level of mould bleaching by an expert panel, using a integer scale running from 0 (no decolorisation) to 6 (complete bleaching). Panel test data for each system was collated and analysed statistically to provide mean scores for each test system. […]
# [3] = Stability tests of imine quat in the presence of hydrogen peroxide at various pH (1H NMR integral ratio; permanganate titration); assay type: physicochemical; conditions: pH 8, without hydrogen peroxide, 2% imine quat, three days after preparation
# [4] = Bleaching of tea stained cotton cloth (reflectance); conditions: pH 10.0 or higher, vs 1% sodium hypochlorite pH 12
# Text: Tea stained cotton (BC-1) cloth is routinely used in the assessment of laundry bleaches. Here the method was adapted as an easy and readily reproducible indicator of the activity of the composition against a common hydrophilic household soil in comparison with a standard hypochlorite bleach.
# Lengths of pre-stained BC-1 cotton cloth was cut into square swatches (2 cm×2 cm). For each composition four replicate cloths were placed in the bottom of a clean glass beaker and covered with the cleaning composition at room temperature. After the required contact time (generally 2 or 5 minutes) had elapsed, the cloths were removed from the cleaning solution using tweezers and immediately immersed in distilled water. The cloths were stirred in the water, and the washing procedure repeated twice more using fresh water each time. Washed cloths were then pressed between two filters to remove excess water and placed on fresh filter papers, in the dark, to dry.
# Reflectance measurements were carried out on a Spectraflash 400 instrument. ΔR measurements were calculated using ‘40ptspec’ software, using a portion of untreated cloth from the same BC-1 cloth batch as a standard. Results obtained from each of the four replicate test cloths were then statistically analysed to obtain mean ΔR values for each bleach system.
# [5] = target pH 5.5, 0 days storage, sample 6.0% H2O2 + 2.0% imine quat
# [6] = target pH 5.5, 148 days storage
# [7] = target pH 6.0, 148 days storage
# [8] = target pH 6.5, 148 days storage
# [9] = target pH 7.0, 148 days storage
# [10] = target pH 7.5, 148 days storage
structure (smiles),measurement,setting,value
"OO [hydrogen peroxide, reference compound]",% hydrogen peroxide,[1]; [5],6.00%
same,% hydrogen peroxide,[1]; [6],5.99%
same,% hydrogen peroxide,"[1]; target pH 6.0, 0 days storage",6.00%
same,% hydrogen peroxide,[1]; [7],5.95%
same,% hydrogen peroxide,"[1]; target pH 6.5, 0 days storage",6.00%
same,% hydrogen peroxide,[1]; [8],5.89%
same,% hydrogen peroxide,"[1]; target pH 7.0, 0 days storage",6.00%
same,% hydrogen peroxide,[1]; [9],5.84%
same,% hydrogen peroxide,"[1]; target pH 7.5, 0 days storage",6.00%
same,% hydrogen peroxide,[1]; [10],5.69%
same,mould bleaching performance,[2]; pH 5.5,ineffective
"C[N+]1=Cc2ccccc2CC1.Cc1ccc(S(=O)(=O)[O-])cc1 [Imine Quat, N-methyl-3,4-dihydroisoquinolinium tosylate]",% of the original amount of imine quat remaining,[3],5%
same,% of the original amount of imine quat still detectable,"[1]; pH 8, in the presence of 6% hydrogen peroxide, 4 hours after preparation",5%
same,imine quat detectable,"[1]; pH 8, in the presence of 6% hydrogen peroxide, one day after preparation",no imine quat was detectable
same,% Imine Quat remaining,[1]; [5],100%
same,% Imine Quat remaining,[1]; [6],93%
same,% Imine Quat remaining,"[1]; target pH 6.0, 0 days storage",100%
same,% Imine Quat remaining,[1]; [7],83%
same,% Imine Quat remaining,"[1]; target pH 6.5, 0 days storage",100%
same,% Imine Quat remaining,[1]; [8],67%
same,% Imine Quat remaining,"[1]; target pH 7.0, 0 days storage",100%
same,% Imine Quat remaining,[1]; [9],43%
same,% Imine Quat remaining,"[1]; target pH 7.5, 0 days storage",100%
same,% Imine Quat remaining,[1]; [10],33%
same,effect of adding Imine Quat on mould bleaching over hydrogen peroxide,[2]; pH 10.5 and 11.0,significant improvement in performance
same,effect of adding Imine Quat on tea stain bleaching,[4],boosts the performance of hydrogen peroxide to values very close to those observed using hypochlorite
